Values of other authors, collected in publication PMC4617652 (Journal of the American Chemical Society, 2015).
Like-named read-outs stand apart in the source and are kept apart here.

Q: For CCN=P(N=P(N(C)C)(N(C)C)N(C)C)(N(C)C)N(C)C [P2-Et], which “pKBH+ of reference base” value (MeCN ref 6c) is on record?
A: Its value is 32.94.

Q: With C1CCC2=NCCCN2CC1 [DBU] as the compound, how does the “pKBH+ of reference base” value (MeCN ref 24) read?
A: Its value is 24.34.

Q: With CC(C)(C)N=P(N1CCCC1)(N1CCCC1)N1CCCC1 [P1-tBu(pyrr)3] as the compound, how does the “pKBH+ of reference base” value (MeCN ref 19) read?
A: Its value is 28.35.
